Test results as given in US7256205B2, “Nitrosated and nitrosylated H2 receptor antagonist compounds, compositions and methods of use” (NitroMed, Inc., priority 1998, dated 2007).
Entries after “also recorded” stand apart in the source; their conditions may differ.

Test system: gastric lesions produced by the ethanol/HCl mixture
Experiment: ethanol/HCl mixture-induced gastric lesion test in rats
Format: in vivo, Male Sprague Dawley rats
Settings: oral gavage 30 min before 60% ethanol in 150 mM HCl, lesions scored 60 min after
Experimental: The ethanol/HCl mixture-induced gastric lesion test in rats described by Takeuchi et al, J. Pharmacol. Exp. Ther., 286: 115-121 (1998), was used to evaluate the gastric lesion activity. Male Sprague Dawley rats (Charles River Laboratories, Wilmington, Mass.) weighing 230-250 g were used for the experiments. The rats were housed with laboratory chow and water ad libitum prior to the study. The rats were fasted for 24 hours with free access to water and then dosed by oral gavage with vehicle or with the test compounds given at a volume of 0.5 ml/100 g body weight. Thirty minutes after oral dosing all the rats received 1 ml of a solution of 60% ethanol in 150 mM HCl intragastrically. Food was withheld after dosing. Sixty minutes after ethanol/HCl, rats were euthanized by pre-charged CO2. The stomachs were dissected along the greater curvature, washed with a directed stream of 0.9% saline and pinned open on a sylgard based petri dish for examination of the hemorrhagic lesions. Gastric lesion score was expressed in mm and calculated by summing the length of each lesion as described by Al-Ghamdi et al, J. Int. Med. Res., 19: 2242 (1991). Results are expressed as the mean±standard error of the mean. Statistical analysis were conducted using ANOVA test followed by a Student-Newman-Keuls post-hoc test using the Abacus Concepts, Super Anova computer program (Abacus Concepts, Inc., Berkeley, Calif.).

Row | SMILES | inhibition of the formation of gastric lesions (gastric lesion score) relative to vehicle alone (160 μmol/kg) | inhibition of the formation of gastric lesions (gastric lesion score) relative to vehicle alone (320 μmol/kg)
1 | CN/C(=N/CCSCc1nc[nH]c1C)NC#N [Cimetidine, reference compound] | failed to significantly inhibit the formation of gastric lesions; also recorded: did not significantly inhibit the formation of gastric lesions | failed to significantly inhibit the formation of gastric lesions; also recorded: did not significantly inhibit the formation of gastric lesions
2 | CNC(=NCCSCc1ncn(C(=O)CC2(SN=O)C3CC4CC(C3)CC2C4)c1C)NC#N (stereo not shown) [Example 1, (2Z)-2-aza-3-(methylamino)-3-((2-((5-methyl-1-(2-(2-(nitrosothio)adamantan-2-yl)acetyl)imidazol-4-yl)methylthio)ethyl)amino)prop-2-enenitrile] | significantly inhibited the formation of gastric lesions | significantly inhibited the formation of gastric lesions
